Reference: PubChem BioAssay (NCI)
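Cultured in 96-well plates, cells were exposed to test compound for 48 hours across five concentrations. TGI: concentration producing complete growth inhibition.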

How the values were obtained:
Assay in all cases: NCI-60 cell line screen, 48 h
[1] = tested on: A549 NSCLC
[2] = tested on: OVCAR-8 ovarian
[3] = tested on: COLO 205 colon
[4] = tested on: PC-3 prostate
[5] = tested on: HL-60(TB) leukemia
[6] = tested on: BT-549 breast
[7] = tested on: 786-0 renal
[8] = tested on: NCI-H226 lung
[9] = tested on: SF-268 CNS
[10] = tested on: OVCAR-5 ovarian
[11] = tested on: SN12C renal
[12] = tested on: CAKI-1 renal
[13] = tested on: SK-MEL-28 melanoma
[14] = tested on: SF-539 CNS
[15] = tested on: OVCAR-3 ovarian
[16] = tested on: NCI-H23 lung
[17] = tested on: KM12 colon
[18] = tested on: MALME-3M melanoma
[19] = tested on: SW-620 colon
[20] = tested on: UO-31 renal
[21] = tested on: MDA-MB-435
[22] = tested on: RXF 393 renal
[23] = tested on: SR leukemia
[24] = tested on: IGROV1 ovarian
[25] = tested on: NCI-H522 lung
[26] = tested on: EKVX NSCLC
[27] = tested on: NCI-H460 lung
[28] = tested on: UACC-257 melanoma
[29] = tested on: DU-145 prostate
[30] = tested on: HCT-116 colon
[31] = tested on: MDA-N
[32] = tested on: TK-10 renal
[33] = tested on: HT29 colon
[34] = tested on: HOP-92 NSCLC
[35] = tested on: NCI/ADR-RES ovarian
[36] = tested on: HS 578T breast
[37] = tested on: OVCAR-4 ovarian
[38] = tested on: A498 renal
[39] = tested on: SNB-75 CNS
[40] = tested on: SNB-19 CNS
[41] = tested on: ACHN renal
[42] = tested on: K-562 leukemia
[43] = tested on: U251 CNS
[44] = tested on: MDA-MB-231 breast
[45] = tested on: HOP-62 NSCLC
[46] = tested on: HCC-2998 colon
[47] = tested on: MOLT-4 leukemia
[48] = tested on: SK-MEL-5 melanoma
[49] = tested on: LOX IMVI melanoma
[50] = tested on: SF-295 CNS
[51] = tested on: HCT-15 colon
[52] = tested on: RPMI-8226 leukemia

What does the source list for `O=C(OCc1ccccc1)C(Cc1ccc(OCc2ccccc2)cn1)NC(=O)C(F)(F)F` (configuration not stated)?
TGI [1]: > 100 µM; TGI [2]: > 100 µM; TGI [3]: > 100 µM; TGI [4]: > 100 µM; TGI [5]: > 100 µM; TGI [6]: > 100 µM; TGI [7]: > 100 µM; TGI [8]: > 100 µM; TGI [9]: > 100 µM; TGI [10]: > 100 µM; TGI [11]: > 100 µM; TGI [12]: > 100 µM; TGI [13]: > 100 µM; TGI [14]: > 100 µM; TGI [15]: > 100 µM; TGI [16]: > 100 µM; TGI [17]: > 100 µM; TGI [18]: > 100 µM; TGI [19]: > 100 µM; TGI [20]: > 100 µM; TGI [21]: > 100 µM; TGI [22]: > 100 µM; TGI [23]: > 100 µM; TGI [24]: > 100 µM; TGI [25]: > 100 µM; TGI [26]: > 100 µM; TGI [27]: > 100 µM; TGI [28]: > 100 µM; TGI [29]: > 100 µM; TGI [30]: > 100 µM; TGI [31]: > 100 µM; TGI [32]: > 100 µM; TGI [33]: > 100 µM; TGI [34]: > 100 µM; TGI [35]: > 100 µM; TGI [36]: > 100 µM; TGI [37]: > 100 µM; TGI [38]: > 100 µM; TGI [39]: 98.8 µM; TGI [40]: > 100 µM; TGI [41]: > 100 µM; TGI [42]: > 100 µM; TGI [43]: > 100 µM; TGI [44]: > 100 µM; TGI [45]: > 100 µM; TGI [46]: > 100 µM; TGI [47]: > 100 µM; TGI [48]: > 100 µM; TGI [49]: > 100 µM; TGI [50]: > 100 µM; TGI [51]: > 100 µM; TGI [52]: > 100 µM
